The record followed here is publication PMC3978604 (Arthritis Research & Therapy, 2013).

Where two headings read alike, the source gives them in different places.

Data set [1] deals with human PBMCs, CD3+ T cells. Description: IL-2-induced STAT5 phosphorylation in CD3+ T cells (flow cytometry). It counts as cell-based. The note with it: for effect on phosphorylation of STAT5: at 1 μM, IL-2 stimulated CD3+ T cells. (A flow cytometer gives signals particle by particle.)
Description: (§2) Human PBMCs were pre-incubated with compound for 30 minutes followed by 20 minutes stimulation with IL-2 (100 ng/ml) for signal transducers and activators of transcription 5 (STAT5) phosphorylation or IFNγ (100 ng/ml) for STAT1 phosphorylation.
The next data set deals with Ramos B-cell line. In words: cells. The conditions noted are these: Homo sapiens, read-out: IC50, anti-IgM-activated calcium flux. On the procedure:
Baseline fluorescence was recorded for about 20 seconds followed by stimulation with mouse anti-human IgM (10 μg/ml, clone M2E6; Antibody Solutions Inc., Mountain View, CA, USA) for Ramos cells or mouse anti-human CD3 (10 μg/ml; BD Biosciences) for Jurkat cells, and the maximal fluorescent counts in each well were recorded.
(Calcium assays in cells follow changes in intracellular calcium, usually with a dye or a luminescent sensor.)

Another data set relates to Jurkat T-cell line. Description: Anti-CD3-induced calcium flux (FLIPR). Format: cell-based. The note with it: Homo sapiens, read-out: IC50, T-cell receptor (anti-CD3)-induced calcium flux.
A further data set deals with human PBMCs. In words: cells. The conditions noted are these: PBMC, read-out: IC50, BCR-dependent cell surface CD69 expression in CD20+ B cells. Here is the method:
(§1) The samples were stained with PE mouse anti-human CD20 and APC mouse anti-human CD69. The percentage of activated (CD69^hi) B cells was determined using unstimulated (negative control) and stimulated (positive control) samples as references.

The test system of another data set is human whole blood. In words: cells. The conditions noted are these: B-cell, read-out: IC50, BCR-dependent cell surface CD69 expression in CD20+ B cells. Here is the method:
as §1

The test system of another data set is human monocytes. Description: cells. The note with it: Monocyte. Here is the method:
Peripheral blood mononuclear cells (PBMCs) were isolated by centrifugation from heparinized blood in a Vacutainer CPT Cell Preparation Tube (BD Biosciences). PBMCs were cultured for 1 to 2 hours to allow monocytes to adhere, and nonadherent cells were washed away. The monocytes were stimulated with human IgG-coated (Jackson Immunology, West Grove, PA, USA) copolymer microsphere beads (Thermo Scientific, Fremont, CA, USA) or lipopolysaccharide (1 ng/ml; Sigma-Aldrich) for 4 hours. TNFα levels in supernatants were determined by enzyme-linked immunosorbent assay kits (BD Biosciences).

The subject of another data set is human mast cells. Description: cells. The note with it: Mast cell, read-out: IC50, IgE/antigen-induced histamine release. Here is the method: The method has been reported previously by our group. […] For measuring histamine release, cells were sensitized with 0.1 μg/ml anti-4-hydroxy-3-nitrophenylacetyl hapten IgE (Serotec, Raleigh, NC, USA) overnight, and then cross-linked with 1 μg/ml NP(30)-BSA (Biosearch Technologies, Novato, CA, USA) for 30 minutes. Supernatants were collected and assayed for histamine release using a histamine enzyme immunoassay (Oxford Biomedical Research, Rochester Hills, MI, USA). The percentage of histamine release was calculated by comparing various treatments with positive control.

Data set [2] deals with human PBMCs, CD14+ monocytes. Description: IFNγ-induced STAT1 phosphorylation in CD14+ monocytes (flow cytometry). Format: cell-based. The conditions noted are these: IFNγ-treated CD14+ monocytes; except at the highest concentration tested (10 μM).
Description: as §2
In data set [3] the test system is mouse bone marrow macrophages. Description: RANK-L/M-CSF mediated osteoclastogenesis, TRAP+ multinuclear cells. It counts as cell-based. The conditions noted are these: in the presence of more than 0.4 μM. On the procedure:
Bone marrow cells were obtained from C57BL/6 mouse tibiae and suspended in culture medium supplemented with monocyte colony-stimulating factor (100 ng/ml) for 16 hours. […] The cells were stained using a tartrate-resistant acid phosphate (TRAP) staining kit (Sigma, St Louis, MO, USA). TRAP^+ multinuclear cells were counted for each well under a microscope.

The next data set relates to human B cells. Description: TLR9-mediated plasmablast differentiation (ODN2006 + IL-2, 6 days). Format: cell-based. On the procedure:
Human B cells were differentiated with ODN2006 (50 nM) and IL-2 (10 ng/ml) for 6 days. The differentiated cells were stained with V450 anti-CD38, FITC anti-CD20, PE anti-CD19 and APC intracellular IgM. The plasmablasts were identified as CD19^+CD38^+CD20^–IgM^+ cells. The production of IgG and IgM was quantitated by AlphaLISA.

The test system of data set [4] is human plasmacytoid dendritic cells. In words: TLR9-mediated pDC activation (ODN2216, 2 days). The conditions noted are these: human pDCs, concentration-dependent. It counts as cell-based. Here is the method: Human plasmacytoid dendritic cells (pDCs) were isolated by negative selection from PBMCs with the human pDC Isolation Kit (Miltenyi Biotec, Auburn, CA, USA). The purity was confirmed with CD303 (BDCA-2; Miltenyi Biotec) staining and stimulated with ODN2216 (1 μM) for 2 days. The production of IFNα and TNFα was measured by AlphaLISA.

A short description of data set [5]: Pharmacokinetics after single oral dosing in mouse. It counts as in vivo. The note with it: plasma.
Data set [6] concerns DBA1/J mice with collagen-induced arthritis. In words: Murine collagen-induced arthritis model (mCIA). It counts as in vivo, mouse. Here is the method: The mCIA model has been reported previously. Briefly, DBA1/J male mice were injected intradermally with 0.1 ml bovine type II collagen (100 μg; Chondrex Inc., Redmond, WA, USA) and complete Freund’s adjuvant (200 μg; Difco, Detroit, MI, USA) followed by second immunization on day 21 with bovine type II collagen and incomplete Freund adjuvant. […] Clinical arthritis scores (1 to 4) of individual paws were assessed and the arthritic index for each mouse was determined by adding the individual scores of all four paws. The level of cytokines in serum was determined by Luminex analysis (Millipore, Billerica, MA, USA). Hind paws from CIA mice were collected into 10% neutral buffered formalin. After decalcification in 10% formic acid, paws were embedded in paraffin, sectioned at 8 μm and stained with toluidine blue. Inflammation (infiltration of inflammatory cells), pannus, cartilage damage, and bone resorption were scored in a double-blinded fashion by a board-certified pathologist at Boulder BioPATH, Inc. (Boulder, CO, USA) using standard criteria, with 0 being normal and 5 being the most severe.

Data set [7] relates to mouse whole blood B220+ B cells. In words: Ex vivo anti-IgD-induced CD69 expression on B220+ B cells in whole blood of dosed CIA mice. The conditions noted are these: 2 and 5 hours post dose.
The next data set deals with JAK1. Description: KINOMEscan ATP binding site competition assay. The conditions noted are these: 1 μM compound; truncated recombinant JAK1.
The target in a further data set is JAK3 (Homo sapiens, UniProt P52333). Description: KINOMEscan ATP binding site competition assay. The conditions noted are these: 1 μM compound; truncated recombinant JAK3.
The next data set relates to Ramos cells. In words: Western blot of anti-IgM induced phosphorylation of BTK, PLCγ2, AKT and ERK. The note with it: 1 μM pretreatment.
Another data set concerns the target SYK (Homo sapiens, UniProt P43405). Description: Whole blood assays of SYK inhibition. Format: cell-based.
The subject of data set [8] is panel of 392 wild-type (non-mutant) protein kinases. In words: KINOMEscan ATP binding site competition assay, kinase panel selectivity. The note with it: including JAK and vascular endothelial growth factor receptor; data not shown.

Chain of JAK3 (P52333 811-1124 limits assumed): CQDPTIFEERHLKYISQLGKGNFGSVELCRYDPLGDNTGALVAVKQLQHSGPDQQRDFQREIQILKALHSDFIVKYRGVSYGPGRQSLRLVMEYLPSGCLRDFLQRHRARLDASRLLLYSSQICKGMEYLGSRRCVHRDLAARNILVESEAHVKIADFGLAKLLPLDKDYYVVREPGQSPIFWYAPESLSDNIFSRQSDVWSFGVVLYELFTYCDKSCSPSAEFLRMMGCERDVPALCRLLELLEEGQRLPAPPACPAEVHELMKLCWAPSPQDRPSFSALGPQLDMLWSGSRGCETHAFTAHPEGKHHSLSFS
Excerpt for Ramos cells: The protein phosphorylation was detected with rabbit antibodies of anti-phospho-BTK(Y223) (Epitomics Inc., Burlingame, CA, USA), anti-phospho-PLCγ2(Y1217), anti-phospho-ERK(T202/Y204) or anti-phospho-AKT(S473).

Turning to `C[C@@H]1CCN(C(=O)CC#N)C[C@@H]1N(C)c1ncnc2[nH]ccc12` [tofacitinib, reference compound], in data set [1], the “effect on phosphorylation of STAT5” value is reported as “completely blocked”.
For the compound `Cc1ccc(Nc2cc(N[C@@H]3CCCC[C@@H]3N)nnc2C(N)=O)nc1C` [RO9021, 6-[(1R,2S)-2-amino-cyclohexylamino]-4-(5,6-dimethyl-pyridin-2-ylamino)-pyridazine-3-carboxylic acid amide], the IC50 in the data set with Ramos B-cell line was found to be 78 ± 21 nM; in the data set with Jurkat T-cell line it was 910 ± 270 nM; in the data set with human PBMCs it was 83 nM; in the data set on human whole blood, 87 nM; in the data set on human monocytes (4 h, read-out: IC50, TNFα production induced by crosslinking of FcγR), 63 ± 19 nM; with human monocytes (read-out: IC50, TLR4-dependent TNFα production), 2900 ± 900 nM. Moreover, the IC50 was 22.8 ± 1.7 nM with human mast cells and 1320 ± 660 nM in [1] (Homo sapiens, T-cell, read-out: IC50, IL-2-induced STAT5 phosphorylation). Moreover, the “effect on phosphorylation of STAT5” value in data set [1] is “no significant effect”. Also, the “effect on phosphorylation of STAT1” value in data set [2] is “no effect”. In addition, the “TRAP+ cells” value in data set [3] is “barely detectable”. The “production of IL-6 in the supernatant” value with human B cells was “reduced”. In addition, the “production of IgG in the supernatant” value in the data set on human B cells is reported as “reduced”. For the same compound, in the data set with human B cells, the “production of IgM in the supernatant” value is “reduced”. The “production of IFNα” value in data set [4] is on record as “inhibited”. Also, in [4], the “production of TNFα” value is “inhibited”. Further, the AUC in data set [5] (single oral dose 5 mg/kg) worked out at 3.85 µM·h; in data set [5] (single oral dose 45 mg/kg) it was 35.8 µM·h. Further, the figures for the Cmax in [5] (single oral dose 5 mg/kg) and in data set [5] (single oral dose 45 mg/kg) were 0.695 µM and 5.76 µM, respectively. In addition, the time to peak (Tmax) in data set [5] (single oral dose 5 mg/kg) came out at 1 h; in data set [5] (single oral dose 45 mg/kg), 0.5 h. Further, the half-life in data set [5] (single oral dose 5 mg/kg) was 4.34 h; in [5] (single oral dose 45 mg/kg) it was 3.54 h. The “histopathology of hind paws (inflammation, pannus, cartilage damage, bone resorption)” value in [6] (5 and 45 mg/kg orally daily for 14 days) was “vehicle-treated, but not RO9021-treated, mice had severe inflammation and cartilage damage”. The “arthritis progression, clinical scores” value in data set [6] (5 and 45 mg/kg orally daily for 14 days from day 21, significant in both groups vs vehicle) was “inhibited arthritis progression in a dose-dependent manner”. The “serum level of IL-6” value in data set [6] (after 14 days of treatment) was “markedly reduced”. Besides, in [6] (after 14 days of treatment), the “serum level of KC(CXCL1)” value was “markedly reduced”. Moreover, the “anti-IgD-induced CD69 expression on B cells (B220+), ex vivo” value in data set [7] is listed as “inhibited”. Besides, in the data set on JAK1, the “competition with compound (JAK1)” value is “more than 90%”. The “competition with compound (JAK3)” value at JAK3 is on record as “more than 90%”. The “anti-IgM induced phosphorylation of BTK, PLCγ2, AKT and ERK” value in the data set on Ramos cells was “inhibited”.
Take `COc1cc(Nc2ncc(F)c(Nc3ccc4c(n3)N(COP(=O)(O)O)C(=O)C(C)(C)O4)n2)cc(OC)c1OC` [R788]: on SYK, the “SYK inhibition in whole blood assays” value is recorded as “relatively weak”. In [8], the “kinase selectivity in the KinaseScan assay” value was “inhibiting one-half of the kinome”.

Broadly, the AUC is the area under the concentration-time curve, a measure of exposure. The low end stands for low exposure, the high end for high exposure. As a reminder, the Cmax is the peak of the concentration-time curve. The term Tmax denotes the time from dosing to the highest level. One may read the half-life as how long it takes for the measured level to halve. Read a high half-life as slow loss.
